Data on 1 compound can be found in patent publication US20230416341A1, “IMPROVED THROMBIN INHIBITORS FOR TREATMENT OF THROMBOEMBOLIC CONDITIONS” (priority 2020, published 2023).

This data set can be described thus: Blood loss after 3 mm tail transection (haemoglobin assay). The note with it: mouse, in vivo, 10 mg/kg, 30 min. The text has this: “Blood loss” generally refers excessive bleeding or haemorrhage. Minor haemorrhage refers to clinically insignificant bleeding. Major haemorrhage refers to internal bleeding or when the individual loses sufficient amounts of blood to cause a haemodynamic instability. Blood loss may be measured clinically by measuring blood pressure, pulse rate, haemoglobin levels, urea levels in the blood, and/or by imaging. Indicators of major haemorrhage will be clear to a person skilled in the art. Blood loss may also be determined experimentally for example by measuring the total volume of blood collected from a mouse tail transection and may be quantified by measurement of haemoglobin (mg/dL) present in the total volume of blood lost during a specified observation period (for example 20 minutes). Total haemoglobin may be assessed via a commercially available Haemoglobin colorimetric assay kit (Cat #MAK115; Sigma-Aldrich).
Blood loss was assessed by carrying out a 3 mm tail transection (lop) in rodents, to assess blood loss following compound/drug administration. Tail lop was performed using a standard transection 3 mm from the tip of the tail (Schoenwaelder et al, 2011, Blood). The tail was immediately immersed in pre-warmed sterile saline (37° C.) and time to bleeding cessation and rebleeding events monitored for 30 minutes following transection. […]

On to `CC1CNc2c(cccc2S(=O)(=O)N[C@@H](CCCNC(=N)N)C(=O)N2CC[C@@H](C)C[C@@H]2C(=O)O)C1` (stereo partly shown) [argatroban], for which the “blood loss (haemoglobin)” value is on record as “over 2000 mg/dL”.
